Converted amounts (≈) assume the structure as drawn.
Legend:
Escherichia coli [1] = experiment: Antibacterial activity against Escherichia coli ATCC 25922 at 100 ug/disk after 24 hrs by agar disk diffusion method; format: functional; conditions: ATCC 25922, 24 h, read-out: DIZ
Candida albicans [2] = experiment: Antifungal activity against Candida albicans ATCC 90028 at 100 ug/disk after 48 hrs by agar disk diffusion method; format: functional; conditions: ATCC 90028, 48 h, read-out: DIZ
Staphylococcus aureus [3] = experiment: Antibacterial activity against Staphylococcus aureus ATCC 11632 at 100 ug/disk after 24 hrs by agar disk diffusion method; format: functional; conditions: ATCC 11632, 24 h, read-out: DIZ
Candida albicans [4] = experiment: Antifungal activity against Candida albicans ATCC 90028 after 18 to 24 hrs by agar dilution method; format: functional
Escherichia coli [5] = experiment: Antibacterial activity against Escherichia coli ATCC 25922 after 18 to 24 hrs by agar dilution method; format: functional
Staphylococcus aureus [6] = experiment: Antibacterial activity against Staphylococcus aureus ATCC 11632 after 18 to 24 hrs by agar dilution method; format: functional
Staphylococcus aureus [7] = experiment: microbe, parasite or virus in culture; conditions: ATCC 11632, 24 h, read-out: DIZ
Description: Antibacterial activity against Staphylococcus aureus ATCC 11632 at 10 ug/disk after 24 hrs by agar disk diffusion method

Escherichia coli [8] = experiment: microbe, parasite or virus in culture; conditions: ATCC 25922, 24 h, read-out: DIZ
Description: Antibacterial activity against Escherichia coli ATCC 25922 at 10 ug/disk after 24 hrs by agar disk diffusion method

NIH3T3 = experiment: Cytotoxicity against mouse NIH/3T3 cells after 48 hrs by MTT assay; format: cell-based; conditions: NIH3T3, 48 h
Candida albicans [9] = experiment: Antifungal activity against Candida albicans ATCC 90028 at 10 ug/disk after 48 hrs by agar disk diffusion method; format: functional; conditions: ATCC 90028, 48 h, read-out: DIZ

Row | MIC (Candida albicans [4]) [µg/mL] | MIC (Escherichia coli [5]) [µg/mL] | MIC (Staphylococcus aureus [6]) [µg/mL] | Structure (SMILES) | zone of inhibition at 100 µg/disc (Escherichia coli [1]) [mm] | zone of inhibition at 100 µg/disc (Candida albicans [2]) [mm] | zone of inhibition at 100 µg/disc (Staphylococcus aureus [3]) [mm] | zone of inhibition at 10 µg/disc (Staphylococcus aureus [7]) [mm] | zone of inhibition at 10 µg/disc (Escherichia coli [8]) [mm] | IC50 (NIH3T3) [µM] | zone of inhibition at 10 µg/disc (Candida albicans [9]) [mm]
1 | 25 (≈ 59.5 µM) | 12.5 (≈ 29.8 µM) | 25 (≈ 59.5 µM) | COC(=O)CSc1c(-c2ccc(Cl)cc2)nc2ccccc2c1-c1ccccc1 | 12 | 15 | 13 |  |  |  | 
2 | 12.5 (≈ 31.3 µM) | 25 (≈ 62.6 µM) | 12.5 (≈ 31.3 µM) | COC(=O)CSc1c(-c2ccc(C)cc2)nc2ccccc2c1-c1ccccc1 | 11 | 13 | 16 |  |  |  | 
3 |  |  |  | O=C(O)c1cn(C2CC2)c2cc(N3CCNCC3)c(F)cc2c1=O [CIPROFLOXACIN] |  |  |  | 25 | 28 |  | 
4 | 12.5 (≈ 26.9 µM) | 12.5 (≈ 26.9 µM) | 12.5 (≈ 26.9 µM) | COC(=O)CSc1c(-c2cccc(Br)c2)nc2ccccc2c1-c1ccccc1 | 15 | 13 | 18 |  |  | 456 | 
5 | 25 (≈ 54.6 µM) | 25 (≈ 54.6 µM) | 25 (≈ 54.6 µM) | O=c1oc2ccccc2cc1Sc1c(-c2ccccc2)nc2ccccc2c1-c1ccccc1 | 13 | 10 | 12 |  |  |  | 
6 | 50 (≈ 108 µM) | 25 (≈ 54.2 µM) | 25 (≈ 54.2 µM) | COC(=O)CSc1c(-c2ccc(-c3ccccc3)cc2)nc2ccccc2c1-c1ccccc1 | 10 | 10 | 12 |  |  |  | 
7 | 25 (≈ 50.8 µM) | 25 (≈ 50.8 µM) | 25 (≈ 50.8 µM) | O=c1oc2ccccc2cc1Sc1c(-c2ccc(Cl)cc2)nc2ccccc2c1-c1ccccc1 | 12 | 15 | 12 |  |  |  | 
8 | 12.5 (≈ 29 µM) | 6.25 (≈ 14.5 µM) | 12.5 (≈ 29 µM) | COC(=O)CSc1c(-c2ccc([N+](=O)[O-])cc2)nc2ccccc2c1-c1ccccc1 | 18 | 20 | 16 |  |  |  | 
9 | 6.25 (≈ 18.1 µM) |  |  | Clc1ccccc1C(c1ccccc1)(c1ccccc1)n1ccnc1 [CLOTRIMAZOLE] |  |  |  |  |  |  | 28
10 | 25 (≈ 60.2 µM) | 12.5 (≈ 30.1 µM) | 25 (≈ 60.2 µM) | COC(=O)CSc1c(-c2cccc(OC)c2)nc2ccccc2c1-c1ccccc1 | 15 | 15 | 15 |  |  |  | 
11 | 25 (≈ 64.9 µM) | 25 (≈ 64.9 µM) | 25 (≈ 64.9 µM) | COC(=O)CSc1c(-c2ccccc2)nc2ccccc2c1-c1ccccc1 | 15 | 10 | 15 |  |  |  | 
12 | 25 (≈ 57.4 µM) | 50 (≈ 115 µM) | 50 (≈ 115 µM) | COC(=O)CSc1c(-c2ccc3ccccc3c2)nc2ccccc2c1-c1ccccc1 | 10 | 10 | 10 |  |  |  | 
13 | 25 (≈ 51.3 µM) | 25 (≈ 51.3 µM) | 25 (≈ 51.3 µM) | COc1ccc(-c2nc3ccccc3c(-c3ccccc3)c2Sc2cc3ccccc3oc2=O)cc1 | 12 | 12 | 16 |  |  |  | 
14 | 12.5 (≈ 23.3 µM) | 12.5 (≈ 23.3 µM) | 12.5 (≈ 23.3 µM) | O=c1oc2ccccc2cc1Sc1c(-c2ccc(Br)cc2)nc2ccccc2c1-c1ccccc1 | 18 | 20 | 18 |  |  |  | 
15 | 12.5 (≈ 26.9 µM) | 6.25 (≈ 13.5 µM) | 12.5 (≈ 26.9 µM) | COC(=O)CSc1c(-c2ccc(Br)cc2)nc2ccccc2c1-c1ccccc1 | 20 | 18 | 18 |  |  |  | 
16 | 25 (≈ 53 µM) | 25 (≈ 53 µM) | 25 (≈ 53 µM) | Cc1ccc(-c2nc3ccccc3c(-c3ccccc3)c2Sc2cc3ccccc3oc2=O)cc1 | 13 | 12 | 10 |  |  |  | 
17 | 25 (≈ 60.2 µM) | 12.5 (≈ 30.1 µM) | 12.5 (≈ 30.1 µM) | COC(=O)CSc1c(-c2ccc(OC)cc2)nc2ccccc2c1-c1ccccc1 | 15 | 12 | 15 |  |  |  | 
18 | 50 (≈ 93.7 µM) | 50 (≈ 93.7 µM) | 25 (≈ 46.8 µM) | O=c1oc2ccccc2cc1Sc1c(-c2ccc(-c3ccccc3)cc2)nc2ccccc2c1-c1ccccc1 | < 10 | 10 | 10 |  |  |  | 
19 | 50 (≈ 98.5 µM) | 50 (≈ 98.5 µM) | 50 (≈ 98.5 µM) | O=c1oc2ccccc2cc1Sc1c(-c2ccc3ccccc3c2)nc2ccccc2c1-c1ccccc1 | < 10 | < 10 | < 10 |  |  |  | 
20 | 12.5 (≈ 29.8 µM) | 12.5 (≈ 29.8 µM) | 12.5 (≈ 29.8 µM) | COC(=O)CSc1c(-c2cccc(Cl)c2)nc2ccccc2c1-c1ccccc1 | 18 | 15 | 18 |  |  |  | 
21 | 12.5 (≈ 24.9 µM) | 12.5 (≈ 24.9 µM) | 25 (≈ 49.7 µM) | O=c1oc2ccccc2cc1Sc1c(-c2ccc([N+](=O)[O-])cc2)nc2ccccc2c1-c1ccccc1 | 15 | 18 | 15 |  |  |  | 
